PMC11999303 (iScience, 2025)
“Also recorded” adds a separate entry of the source.

target: I-A^b (Mus musculus, UniProt P14434+P14483); test: MHC2-SCALE peptide exchange with 2D-LCMS detection on I-A^b; assay type: binding; details: single peptide, lowmCLIP-I-A^b, standard exchange pH 5, 2D-LCMS
Sequence (P14434 whole entry, looked up): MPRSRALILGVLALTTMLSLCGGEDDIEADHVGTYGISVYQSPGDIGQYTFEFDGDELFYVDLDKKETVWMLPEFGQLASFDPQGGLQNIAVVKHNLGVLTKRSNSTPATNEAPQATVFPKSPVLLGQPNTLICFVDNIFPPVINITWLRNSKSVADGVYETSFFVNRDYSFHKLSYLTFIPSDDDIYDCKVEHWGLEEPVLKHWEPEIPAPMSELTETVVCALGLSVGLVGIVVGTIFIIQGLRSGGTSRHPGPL
Sequence (P14483 whole entry, looked up): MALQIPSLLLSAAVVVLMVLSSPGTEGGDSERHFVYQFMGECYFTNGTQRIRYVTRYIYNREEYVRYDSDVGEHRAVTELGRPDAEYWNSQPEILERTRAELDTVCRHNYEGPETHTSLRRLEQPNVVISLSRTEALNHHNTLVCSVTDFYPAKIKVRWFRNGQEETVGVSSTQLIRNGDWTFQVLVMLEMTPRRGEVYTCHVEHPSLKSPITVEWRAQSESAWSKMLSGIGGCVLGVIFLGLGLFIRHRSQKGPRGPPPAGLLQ

| Sequence | peptide exchange / binding to I-A^b by MHC2-SCALE, in words |
| --- | --- |
| DRGVIMSAHSLTNSS [M57-A] | binders |
| LQPFQLAFGHLVNRQV [M46-B] | complete peptide exchange |
| LPLQPFQLAFGHLVN [M46-A] | complete peptide exchange |

Now from value to sequence:

| peptide exchange / binding to I-A^b by MHC2-SCALE, in words | Sequence |
| --- | --- |
| bound; also recorded: strong binder | HYKYMCNSSCMGVMN [M112-A] |
| binders | VIMSAHSLTNSSSDF [M57-B] |
